Measurements from PMC10544575, “Inhibitory mechanism of vortioxetine on CYP450 enzymes in human and rat liver microsomes” (Frontiers in Pharmacology, 2023).

What was measured:
Type in all cases: in vitro ADME
CYP2C-3 = assay: IC50-shift experiment, CYP2C-3 in RLMs; details: rat, rat liver microsomes, probe mephenytoin; for IC50 at 30 min: mephenytoin 400 μM
Method: (§1) The components of the incubation system were as follows: 0.20 mg/mL HLMs or 0.20 mg/mL RLMs, 0.1 M Tris-HCl, vortioxetine, and the probe substrates of each enzyme. In the study of Km’s (Michaelis–Menten constant) experiment, midazolam (1, 2, 5, 10, 20, 50 and 100 μM in HLMs and RLMs) corresponded to CYP3A4/3A; bupropion (10, 20, 50, 100, 200, 500, 1,000 and 2000 μM in HLMs; 1, 2, 5, 10, 20, 50, 100 and 200 μM in RLMs) corresponded to CYP2B6/2B; amodiaquine (5, 10, 20, 50, 100 and 200 μM in HLMs; 10, 20, 50, 100, 200, 500 μM in RLMs) corresponded to CYP2C8/CYP2C-1; losartan (1, 2, 5, 10, 20, 50, 100, 200 μM in HLMs; 10, 20, 50, 100, 200, 500 and 1,000 μM in RLMs) corresponded to CYP2C9/CYP2C-2; mephenytoin (20, 50, 100, 200, 500 and 1,000 μM in HLMs; 5, 10, 20, 50, 100, 200, 500 and 1,000 μM in RLMs) corresponded to CYP2C19/CYP2C-3; and dextromethorphan (1, 2, 5, 10, 20, 50 and 100 μM in HLMs and RLMs) corresponded to CYP2D6/CYP2D. After 5.0 min of preincubation in the shaking water bath, the reaction was started with the addition of 1.0 mM NADPH. The incubated temperature at 37°C for 30 min. After the incubation, the enzyme reaction was stopped by cooling at −80°C, and 200 μL of acetonitrile and 20 μL of internal standard diazepam (200 ng/mL) were added for protein precipitation. […]
(§2) IC50-shift was used to investigate whether the drug produced time-dependent inhibition (TDI) of the enzyme. […] During the experiment, the individual substrates midazolam (4 μM), bupropion (40 μM), amodiaquine (3 μM), losartan (8 μM), mephenytoin (90 μM), and dextromethorphan (10 μM) were determined with vortioxetine IC50-shift in HLMs. […]
(§3) All experiments results were detected by UPLC-MS/MS, which equipped with a Waters Acquity UPLC system (Milford, MA, United States) and a Waters Xevo TQ-S triple quadrupole tandem mass spectrometer with an electrospray ionization source (Milford, MA, United States). […]
(§4) IC50 values and enzyme kinetic parameters were calculated by Graphpad Prism 6.0 (GraphPad software Inc., CA, United States). […] Data for each experiment were expressed as mean ± SD (n = 3).

CYP3A4 = CYP3A4 (Homo sapiens, UniProt P08684); assay: Reversible inhibition kinetics (Lineweaver-Burk), CYP3A4 in HLMs; set-up: 0.20 mg/mL HLMs; from tissue; host or cells: human liver microsomes; details: midazolam
Method: The components of the incubation system were as follows: 0.20 mg/mL HLMs or 0.20 mg/mL RLMs, 0.1 M Tris-HCl, vortioxetine, and the probe substrates of each enzyme. In the study of Km’s (Michaelis–Menten constant) experiment, midazolam (1, 2, 5, 10, 20, 50 and 100 μM in HLMs and RLMs) corresponded to CYP3A4/3A; bupropion (10, 20, 50, 100, 200, 500, 1,000 and 2000 μM in HLMs; 1, 2, 5, 10, 20, 50, 100 and 200 μM in RLMs) corresponded to CYP2B6/2B; amodiaquine (5, 10, 20, 50, 100 and 200 μM in HLMs; 10, 20, 50, 100, 200, 500 μM in RLMs) corresponded to CYP2C8/CYP2C-1; losartan (1, 2, 5, 10, 20, 50, 100, 200 μM in HLMs; 10, 20, 50, 100, 200, 500 and 1,000 μM in RLMs) corresponded to CYP2C9/CYP2C-2; mephenytoin (20, 50, 100, 200, 500 and 1,000 μM in HLMs; 5, 10, 20, 50, 100, 200, 500 and 1,000 μM in RLMs) corresponded to CYP2C19/CYP2C-3; and dextromethorphan (1, 2, 5, 10, 20, 50 and 100 μM in HLMs and RLMs) corresponded to CYP2D6/CYP2D. After 5.0 min of preincubation in the shaking water bath, the reaction was started with the addition of 1.0 mM NADPH. The incubated temperature at 37°C for 30 min. After the incubation, the enzyme reaction was stopped by cooling at −80°C, and 200 μL of acetonitrile and 20 μL of internal standard diazepam (200 ng/mL) were added for protein precipitation. The solution was fully vortexed and centrifuged at 13,000 × rpm for 10 min, and the supernatant was collected for data analysis by UPLC-MS/MS.
The inhibitory mechanism of the inhibitor on the enzyme was generally used by different concentrations of the inhibitor against different concentrations of the probe substrate. The concentrations of the inhibitor and the concentrations of probe substrates in the experiment were estimated based on IC50 and Km values, respectively.
In HLMs, the concentrations of the substrates midazolam, bupropion, amodiaquine, losartan, mephenytoin, and dextromethorphan were 1, 2, 4, 8 μM; 10, 20, 40, 80 μM; 0.8, 1.5, 3, 6 μM; 2, 4, 8, 16 μM; 20, 45, 90, 180 μM; 2.5, 5, 10, 20 μM, respectively. Corresponding to the concentration of vortioxetine were 2, 4, 9, 18 μM; 2, 4, 8, 16 μM; 4, 8, 15, 30 μM; 5, 10, 25, 50 μM; 0.6, 1.2, 2.5, 5 μM; 4.5, 9, 18, 36 μM, respectively.
as §3, with “States). The chromatographic separation was performed on a Waters ACQUITY UPLC BEH C18 column (2.1 × 50 mm, 1.7 μm, Waters Corp.) at 40°C.” for “States).”
as §4

CYP2B6 = molecular target: T1, CYP2B6 (Homo sapiens, UniProt P20813); assay: IC50-shift experiment, CYP2B6 in HLMs; set-up: 0.20 mg/mL HLMs or 0.20 mg/mL RLMs; from tissue; host or cells: human liver microsomes; details: for IC50: bupropion 40 μM
T1 sequence (P20813 1-491): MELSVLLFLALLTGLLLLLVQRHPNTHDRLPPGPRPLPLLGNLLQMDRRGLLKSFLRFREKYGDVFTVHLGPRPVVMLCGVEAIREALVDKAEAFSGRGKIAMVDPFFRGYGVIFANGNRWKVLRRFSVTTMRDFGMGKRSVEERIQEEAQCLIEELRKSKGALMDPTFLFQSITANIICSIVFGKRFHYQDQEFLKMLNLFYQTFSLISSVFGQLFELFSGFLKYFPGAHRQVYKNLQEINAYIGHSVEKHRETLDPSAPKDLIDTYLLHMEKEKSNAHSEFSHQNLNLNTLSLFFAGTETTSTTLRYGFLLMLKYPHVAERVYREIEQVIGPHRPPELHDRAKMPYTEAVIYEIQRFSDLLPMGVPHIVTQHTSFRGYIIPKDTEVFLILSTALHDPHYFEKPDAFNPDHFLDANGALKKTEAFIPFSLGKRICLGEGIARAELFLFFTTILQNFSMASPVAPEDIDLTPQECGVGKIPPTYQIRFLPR
Method: as §1, §2, §3, §4

[1] = 30 min preincubation with 1.0 mM NADPH
[2] = 30 min preincubation without NADPH

Sequence of CYP3A4 (P08684 whole entry): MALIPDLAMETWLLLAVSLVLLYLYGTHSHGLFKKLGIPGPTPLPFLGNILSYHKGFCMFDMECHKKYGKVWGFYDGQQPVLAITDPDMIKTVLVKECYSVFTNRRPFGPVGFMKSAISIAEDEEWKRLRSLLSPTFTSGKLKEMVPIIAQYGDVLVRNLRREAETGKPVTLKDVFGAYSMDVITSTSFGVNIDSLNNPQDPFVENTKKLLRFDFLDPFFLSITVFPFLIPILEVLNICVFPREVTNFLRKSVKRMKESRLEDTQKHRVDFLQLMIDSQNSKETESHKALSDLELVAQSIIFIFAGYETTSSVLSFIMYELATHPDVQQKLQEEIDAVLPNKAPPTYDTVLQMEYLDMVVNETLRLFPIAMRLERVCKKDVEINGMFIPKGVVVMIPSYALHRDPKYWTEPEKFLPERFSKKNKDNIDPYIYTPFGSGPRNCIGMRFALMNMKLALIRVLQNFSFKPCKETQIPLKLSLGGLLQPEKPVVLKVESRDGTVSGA

## Cc1ccc(Sc2ccccc2N2CCNCC2)c(C)c1 [vortioxetine]
CYP2C-3; [1]
  IC50 at 30 min: 5.21 µM
CYP2C-3; [2]
  IC50 at 30 min: 24.6 µM
CYP2C-3; ratio IC50 (−) NADPH to IC50 (+) NADPH, read-out: IC50 fold shift
  IC50 shift at 30 min: 4.72
CYP3A4
  Ki: 7.26 µM
  α: 0.94
CYP3A4; Lineweaver-Burk plot
  Inhibition type: noncompetitive inhibition
CYP3A4; secondary plot of y-intercepts
  αKi: 6.82 µM
CYP2B6; [1]
  IC50: 6.69 µM
CYP2B6; [2]
  IC50: 5.38 µM
CYP2B6; human, human liver microsomes, probe bupropion (40 μM), ratio IC50 (−) NADPH to IC50 (+) NADPH, read-out: IC50 fold shift
  IC50 shift at 30 min: 0.8
